System: chicken intestinal alkaline phosphatase
Assay: Feeding anti-intestinal alkaline phosphatase egg antibody to chicks with active vitamin D: plasma phosphorous
Format: in vivo, chicken (Single Comb White Leghorn chicks)
Details: leghorn chicks, 10 days
Description: Single Comb White Leghorn laying hens were used for antibody production (3 hens per peptide antigen). Chicken intestinal alkaline phosphatase was purchased from Worthington. To prepare a vaccine for each hen 0.5 mg of chicken intestinal alkaline phosphatase was diluted to a final concentration of 0.5 ml PBS and mixed with 0.5 ml of Freund's complete adjuvant (first injection) or incomplete adjuvant (booster vaccination) to form a water in oil emulsification capable of holding a bead when dripped on ice water. The hen was then injected in four sites (each leg and each breast) with 0.25 ml of the vaccine emulsion intramuscularly. The booster injection in incomplete adjuvant occurred 7 days later.
In approximately 30 day lots, egg yolks from each hen were separated from whole eggs, mixed and lyophilized. Dried egg yolk powder containing the antibody was stored at room temperature until use in animal feeding studies.
The chicken model used in this study was described by Biehl and Baker, J. Nutr. 1997, 127:2054-2059 with the exception of antibodies to intestinal alkaline phosphatas. The negative control used in this study was a Pi deficient diet (Pi=inorganic phosphate which are largely mineral phosphates or phosphate from animal tissues and products such as milk and eggs), where the dietary phosphorous used was phytic phosphate. […]

C=C1/C(=C\C=C2/CCC[C@]3(C)[C@@H]([C@H](C)CCCC(C)C)CC[C@@H]23)C[C@@H](O)C[C@@H]1O [Active vitamin D, 1α-hydroxyvitamin D3]
effect on plasma phosphorous levels (in words) (Pi deficient diet, antibody vs active vitamin D alone, vitamin D vs negative control): increased blood phosphorous levels in comparison to the negative control
Plasma phosphate (Pi deficient phytic phosphorous diet, 1α-hydroxyvitamin D3 20 μg/kg diet alone or plus antibody 1 g/kg diet): 6.70 mg/dL

Reference: US8802094B2, “Method of reducing phosphate absorption by administering orally an IgY anti-intestinal sodium phosphate cotransporter type 2B antibody” (Wisconsin Alumni Research Foundation, priority 2006, dated 2014)
